Columns and labels:
[1] = Safety index, ratio of NOAEL for cardiotoxicity in anesthetized guinea pigs assessed as free drug level causing QTcB prolongation dosed up to 10 mg/kg, iv administered over a period of 5 min at 15 mins interval by ECG analysis to EC50 for Antialzheimer activity in po dosed Beagle dog assessed as reduction in amyloid beta (1 to 40) levels measured after 1 hr post dose by ELISA; format: toxicity, organism-based; conditions: guinea pig, in vivo
Beta-secretase 1 = Beta-secretase 1 (Homo sapiens, UniProt P56817); test: Inhibition of BACE1 in human SKNBE2 cells transfected with APP695 protein assessed as reduction in amyloid beta (1 to 42) levels after 18 hrs by sandwich alphalisa assay; format: cell-based
Chain of Beta-secretase 1 (P56817 whole entry): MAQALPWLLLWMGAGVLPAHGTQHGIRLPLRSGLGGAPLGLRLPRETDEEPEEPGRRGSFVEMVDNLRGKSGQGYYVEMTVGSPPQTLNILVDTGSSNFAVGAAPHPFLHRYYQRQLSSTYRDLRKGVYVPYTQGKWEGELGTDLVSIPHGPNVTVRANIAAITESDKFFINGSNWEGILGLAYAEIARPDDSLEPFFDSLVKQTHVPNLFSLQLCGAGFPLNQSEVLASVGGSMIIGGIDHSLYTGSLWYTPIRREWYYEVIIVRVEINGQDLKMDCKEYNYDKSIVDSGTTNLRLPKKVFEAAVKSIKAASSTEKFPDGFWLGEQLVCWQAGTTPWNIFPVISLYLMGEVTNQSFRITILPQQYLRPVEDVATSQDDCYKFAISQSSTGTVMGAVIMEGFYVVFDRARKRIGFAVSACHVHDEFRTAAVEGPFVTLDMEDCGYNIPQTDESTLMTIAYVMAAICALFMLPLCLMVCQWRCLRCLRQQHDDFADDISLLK

[2] = Drug metabolism in mouse liver microsomes at 1 uM after 15 mins in presence of NADPH by HPLC-MS/MS analysis; format: ADME, microsome; conditions: read-out: Drug metabolism
[3] = Fraction unbound in mouse plasma at 5 uM after 4.5 hrs by HPLC-MS/MS method based rapid equilibrium dialysis; format: ADME, cell-free
HepG2 = test: Cytotoxicity against human HepG2 cells assessed as effect on cell health indicators after 72 hrs by automated fluorescence microscopy based high content screening based assay; format: ADME; conditions: hepg2, 72 h
[4] = Fraction unbound in human plasma at 5 uM after 4.5 hrs by HPLC-MS/MS method based rapid equilibrium dialysis; format: ADME, cell-free
[5] = Fraction unbound in rat plasma at 5 uM after 4.5 hrs by HPLC-MS/MS method based rapid equilibrium dialysis; format: ADME, cell-free
Cytochrome P450 1A2 = Cytochrome P450 1A2 (Homo sapiens, UniProt P05177); test: Reversible inhibition of recombinant human CYP1A2 by fluorescence-based assay; format: ADME
Chain of Cytochrome P450 1A2 (P05177 whole entry): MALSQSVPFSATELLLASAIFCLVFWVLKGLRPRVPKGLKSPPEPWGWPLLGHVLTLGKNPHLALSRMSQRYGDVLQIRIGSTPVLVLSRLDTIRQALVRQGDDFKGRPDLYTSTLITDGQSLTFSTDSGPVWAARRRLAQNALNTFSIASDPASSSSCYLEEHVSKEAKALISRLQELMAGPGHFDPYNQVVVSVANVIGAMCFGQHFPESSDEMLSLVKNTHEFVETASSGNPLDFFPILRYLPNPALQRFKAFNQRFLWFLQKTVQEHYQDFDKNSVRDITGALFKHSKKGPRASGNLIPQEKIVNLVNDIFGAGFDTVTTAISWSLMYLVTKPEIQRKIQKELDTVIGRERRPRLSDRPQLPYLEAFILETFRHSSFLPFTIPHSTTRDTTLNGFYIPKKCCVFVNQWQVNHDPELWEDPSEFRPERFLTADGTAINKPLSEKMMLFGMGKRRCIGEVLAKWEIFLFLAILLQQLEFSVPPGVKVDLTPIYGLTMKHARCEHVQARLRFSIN

Cytochrome P450 3A4 = Cytochrome P450 3A4 (Homo sapiens, UniProt P08684); test: Reversible inhibition of recombinant human CYP3A4 by fluorescence-based assay; format: ADME
Chain of Cytochrome P450 3A4 (P08684 whole entry): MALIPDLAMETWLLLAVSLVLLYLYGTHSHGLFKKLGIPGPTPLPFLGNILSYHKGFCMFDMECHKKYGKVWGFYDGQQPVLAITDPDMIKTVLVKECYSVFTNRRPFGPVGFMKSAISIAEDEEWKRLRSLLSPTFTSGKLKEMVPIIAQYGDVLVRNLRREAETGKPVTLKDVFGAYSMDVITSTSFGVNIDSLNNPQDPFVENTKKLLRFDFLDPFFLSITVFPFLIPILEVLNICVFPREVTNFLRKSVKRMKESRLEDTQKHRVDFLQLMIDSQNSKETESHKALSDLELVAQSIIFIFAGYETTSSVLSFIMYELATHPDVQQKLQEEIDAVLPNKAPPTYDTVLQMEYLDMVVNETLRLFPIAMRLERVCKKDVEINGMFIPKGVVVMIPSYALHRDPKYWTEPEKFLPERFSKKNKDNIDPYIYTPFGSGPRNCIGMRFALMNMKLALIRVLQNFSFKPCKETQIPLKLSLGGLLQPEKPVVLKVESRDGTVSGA

[6] = Clearance in Sprague-Dawley rat at 2.5 mg/kg, iv administered as bolus dose by LC-MS/MS analysis; format: ADME, organism-based; conditions: in vivo
[7] = Volume of distribution at steady state in Sprague-Dawley rat at 2.5 mg/kg, iv administered as bolus dose by LC-MS/MS analysis; format: ADME, organism-based; conditions: in vivo, read-out: Vdss
Canis familiaris [8] = test: Volume of distribution at steady state in Beagle dog at 1 mg/kg, iv administered as bolus dose by LC-MS/MS analysis; format: ADME, organism-based, Canis lupus familiaris; conditions: in vivo
[9] = Cmax in Sprague-Dawley rat at 10 mg/kg, po administered as bolus dose by LC-MS/MS analysis; format: ADME, organism-based; design: dose 10 mg/kg, route oral; conditions: in vivo
[10] = Cmax in Beagle dog at 10 mg/kg, po administered as bolus dose by LC-MS/MS analysis; format: ADME, organism-based, Canis lupus familiaris; design: dose 10 mg/kg, route oral; conditions: in vivo
[11] = Tmax in Sprague-Dawley rat at 10 mg/kg, po administered as bolus dose by LC-MS/MS analysis; format: ADME, organism-based; conditions: in vivo
[12] = AUC (0 to infinity) in Sprague-Dawley rat at 10 mg/kg, po administered as bolus dose by LC-MS/MS analysis; format: ADME, organism-based; design: dose 10 mg/kg, route oral, time infinity; conditions: in vivo
[13] = Oral bioavailability in Swiss mouse at 10 mg/kg administered as bolus dose by LC-MS/MS analysis; format: ADME, organism-based; conditions: in vivo
[14] = Oral bioavailability in Beagle dog at 10 mg/kg administered as bolus dose by LC-MS/MS analysis; format: ADME, organism-based, Canis lupus familiaris; conditions: in vivo
Mus musculus = test: Systemic clearance in Swiss mouse at 2.5 mg/kg, iv administered as bolus dose by LC-MS/MS analysis relative to liver blood flow; format: ADME, organism-based; conditions: in vivo
Canis familiaris [15] = test: Systemic clearance in Beagle dog at 1 mg/kg, iv administered as bolus dose by LC-MS/MS analysis relative to liver blood flow; format: ADME, organism-based, Canis lupus familiaris; conditions: in vivo
Salmonella typhimurium = test: Mutagenicity in Salmonella typhimurium TA98 up to 500 ug/ml in presence of rat liver S9 fraction by Ames 2 assay; format: toxicity, organism-based; conditions: salmonella enterica subsp. enterica serovar typhimurium
TK6 = test: Genotoxicity in human TK6 cells at 188 ug/ml after 4 hrs in presence of rat liver S9 fraction by micronucleus assay; format: toxicity, cell-based; conditions: s9, 4 h
[16] = Ratio of drug level in lung to plasma of Sprague-Dawley rat at 10 mg/kg, po; format: ADME, organism-based
Rattus norvegicus [17] = test: Toxicity in Sprague-Dawley rat assessed as effect on body weight at 225 mg/kg/day, po administered via gavage for 1 month; format: organism-based; conditions: in vivo
[18] = AUC (0 to 24 hrs) in male Sprague-Dawley rat at 75 mg/kg, po measured after 1 month repeated dosing by LC-MS/MS analysis; format: ADME, organism-based; design: time < 24 hr, dose 75 mg/kg, route oral; conditions: in vivo
Canis familiaris [19] = test: Toxicity in Beagle dog assessed as drug tolerability at 0.63 to 20 mg/kg, po qd for 1 day; format: organism-based, Canis lupus familiaris; conditions: in vivo, 24 h
Canis familiaris [20] = test: Toxicity in Beagle dog assessed as drug tolerability at 0.63 to 20 mg/kg, po qd for 6 days; format: organism-based, Canis lupus familiaris; conditions: in vivo, 144 h
Canis familiaris [21] = test: Toxicity in Beagle dog assessed as induction of behavioural changes at 0.63 to 20 mg/kg, po qd for 1 day; format: organism-based, Canis lupus familiaris; conditions: in vivo, 24 h
Canis familiaris [22] = test: Toxicity in Beagle dog assessed as induction of appearance changes at 0.63 to 20 mg/kg, po qd for 1 day; format: organism-based, Canis lupus familiaris; conditions: in vivo, 24 h
Canis familiaris [23] = test: Toxicity in Beagle dog assessed as induction of behavioural changes at 0.63 to 20 mg/kg, po qd for 6 days; format: organism-based, Canis lupus familiaris; conditions: in vivo, 144 h
Canis familiaris [24] = test: Toxicity in Beagle dog assessed as induction of appearance changes at 0.63 to 20 mg/kg, po qd for 6 days; format: organism-based, Canis lupus familiaris; conditions: in vivo, 144 h
Rattus norvegicus [25] = test: Toxicity in Sprague-Dawley rat assessed as drug tolerability at 25 to 75 mg/kg/day, po measured after 1 month repeated dosing; format: organism-based; conditions: in vivo
Canis familiaris [26] = test: Toxicity in beagle dog assessed as induction of ataxia at 70 to 250 mg/kg/day, po qd for 1 week; format: organism-based, Canis lupus familiaris; conditions: in vivo, 168 h
Canis familiaris [27] = test: Toxicity in beagle dog assessed as induction of reduction in general activity at 70 to 250 mg/kg/day, po qd for 1 week; format: organism-based, Canis lupus familiaris; conditions: in vivo, 168 h
Canis familiaris [28] = test: Toxicity in beagle dog assessed as induction of tremors at 70 to 250 mg/kg/day, po qd for 1 week; format: organism-based, Canis lupus familiaris; conditions: in vivo, 168 h
Canis familiaris [29] = test: Toxicity in male beagle dog assessed as reduction in RBC parameters at 250 mg/kg/day, po qd for 1 month; format: organism-based, Canis lupus familiaris; conditions: in vivo
Canis familiaris [30] = test: Toxicity in male beagle dog at 20 to 250 mg/kg/day, po qd for 1 month followed by 1 month recovery period; format: organism-based, Canis lupus familiaris; conditions: in vivo
[31] = Toxicity in male beagle dog at 20 to 250 mg/kg/day, po qd for 1 month; format: organism-based, Canis lupus familiaris; conditions: in vivo
Canis familiaris [32] = test: Toxicity in male beagle dog assessed as induction of pigmentation at 20 to 250 mg/kg/day, po qd for 1 month; format: organism-based, Canis lupus familiaris; conditions: in vivo
Homo sapiens = species on record: Homo sapiens; test: Selectivity for BACE1 (unknown origin) over BACE2 (unknown origin)
[33] = Cmax in male Beagle dog at 70 mg/kg, po measured after 1 month repeated dosing by LC-MS/MS analysis; conditions: in vivo
[34] = Cmax in female Beagle dog at 70 mg/kg, po measured after 1 month repeated dosing by LC-MS/MS analysis; conditions: in vivo
[35] = AUC (0 to 24 hrs) in female Beagle dog at 70 mg/kg, po measured after 1 month repeated dosing by LC-MS/MS analysis; conditions: in vivo

C[C@]1(c2cc(NC(=O)c3ccc(C#N)cn3)ccc2F)N=C(N)CO[C@H]1C(F)(F)F
selectivity ratio [1]: 71 | IC50 (Beta-secretase 1): 0.006 µM | metabolised at 0.25 h, 1 µM [2]: 13% | fraction unbound at 4.5 h, 5 µM [3]: 0.23 | MTC (HepG2): 31.5 µM | fraction unbound at 4.5 h, 5 µM [4]: 0.36 | fraction unbound at 4.5 h, 5 µM [5]: 0.26 | IC50 (Cytochrome P450 1A2): > 30 µM | IC50 (Cytochrome P450 3A4): > 30 µM | clearance [6]: 47 mL/min/kg | Vd [7]: 11 L/kg | Vdss (Canis familiaris [8]): 7.6 L/kg | Cmax [9]: 160 nM | Cmax [10]: 1090 nM | Tmax [11]: 2 h | AUC(0-inf) [12]: 1220 ng·h/mL | bioavailability [13]: 45% | bioavailability [14]: 71% | CL (Mus musculus): 50% | CL (Canis familiaris [15]): 25% | Activity (Salmonella typhimurium): Non-Toxic | Activity (TK6): Non-Toxic | Kp [16]: 169 | Activity (Rattus norvegicus [17]): Non-Toxic | AUC at 24 h [18]: 13700 ng·h/mL | Activity (Canis familiaris [19]): Non-Toxic | Activity (Canis familiaris [20]): Non-Toxic | Activity (Canis familiaris [21]): Non-Toxic | Activity (Canis familiaris [22]): Non-Toxic | Activity (Canis familiaris [23]): Non-Toxic | Activity (Canis familiaris [24]): Non-Toxic | Activity (Rattus norvegicus [25]): Non-Toxic | Activity (Canis familiaris [26]): Toxic | Activity (Canis familiaris [27]): Toxic | Activity (Canis familiaris [28]): Toxic | Activity (Canis familiaris [29]): Toxic | Activity (Canis familiaris [30]): Non-Toxic | NOAEL at 1 month [31]: 70 mg/kg/day | Activity (Canis familiaris [32]): Non-Toxic | Selectivity ratio (Homo sapiens): 10 | Cmax at 1 month [33]: 1970 ng/mL | Cmax at 1 month [34]: 2080 ng/mL | AUC at 24 h [35]: 23100 ng·h/mL

From ChEMBL document CHEMBL4130624, “Optimization of 1,4-Oxazine β-Secretase 1 (BACE1) Inhibitors Toward a Clinical Candidate” (J Med Chem, 2018)
